Measured values from the SangsterLogP compilation.

In order of rising logP:
1. COC(=O)NC1=NCC(c2ccc(CO)cc2)N1C (stereo not given)  0.28
2. COC(=O)NC1=NCC(c2ccc(C=O)cc2)N1C (stereo not given)  0.74
3. CCOC(=O)NC1=NCC(c2ccc(CO)cc2)N1C (stereo not given)  0.84
4. NCCCOc1cccc2ccccc12  1.04
5. NCCOc1cccc2ccccc12  1.15
6. COC(=O)NC1=NCC(c2ccc3c(c2)OCO3)N1 (stereo not given)  1.21
7. NCCCCOc1cccc2ccccc12  1.25
8. COC(=O)NC1=NCC(c2ccc(C(=O)OC)cc2)N1C (stereo not given)  1.38
9. COC(=O)NC1=NCC(c2cccc(OC)c2)N1C (stereo not given)  1.39
10. COC(=O)NC1=NCC(c2cccc(F)c2)N1 (stereo not given)  1.41
11. COC(=O)NC1=NCC(c2ccc(F)cc2)N1 (stereo not given)  1.49
12. COC(=O)NC1=NCC(c2ccccc2F)N1C (stereo not given)  1.53
13. COC(=O)NC1=NCC(c2ccccc2)N1 (stereo not given)  1.55
14. COC(=O)NC1=NCC(c2ccccc2)N1C (stereo not given)  1.57
15. NCCCCCOc1cccc2ccccc12  1.59
16. CCOC(=O)NC1=NCC(c2cccc(F)c2)N1C (stereo not given)  1.84
17. COC(=O)NC1=NCC(c2ccccc2C)N1C (stereo not given)  1.85
18. COC(=O)NC1=NCC(c2cccc(C)c2)N1C (stereo not given)  1.85
19. COC(=O)NC1=NCC(c2ccccc2Br)N1 (stereo not given)  1.85
20. CCOC(=O)NC1=NCC(c2ccccc2)N1C (stereo not given)  1.9
21. CCOC(=O)NC1=NCC(c2ccc(F)cc2)N1C (stereo not given)  1.9
22. COC(=O)NC1=NCC(c2cccc(Cl)c2)N1 (stereo not given)  1.9
23. CN(C)CCCOc1cccc2ccccc12  1.99
24. CN(C)CCCCOc1cccc2ccccc12  2.05
25. NCCCCCCOc1cccc2ccccc12  2.06
26. COC(=O)NC1=NCC(c2ccccc2SC)N1C (stereo not given)  2.08
27. COC(=O)NC1=NCC(c2ccccc2Cl)N1C (stereo not given)  2.08
28. O=c1c2ncn(COCCO)c2nc2[nH]c(-c3ccc4ccccc4c3)cn12  2.09
29. COC(=O)NC1=NCC(c2cccc(Cl)c2)N1C (stereo not given)  2.1
30. CN(C)CCOc1cccc2ccccc12  2.12
31. COC(=O)NC1=NCC(c2ccc(Cl)cc2)N1C (stereo not given)  2.17
32. COC(=O)NC1=NCC(c2ccc(C(F)(F)F)cc2)N1 (stereo not given)  2.25
33. CCOC(=O)NC1=NCC(c2ccccc2Cl)N1C (stereo not given)  2.4
34. CCOC(=O)NC1=NCC(c2cccc(Cl)c2)N1C (stereo not given)  2.45
35. COC(=O)NC1=NCC(c2ccc3ccccc3c2)N1 (stereo not given)  2.54
36. CCOC(=O)NC1=NCC(c2cccc(C)c2C)N1C (stereo not given)  2.57
37. COC(=O)NC1=NCC(c2ccc(C(C)C)cc2)N1 (stereo not given)  2.6
38. COC(=O)NC1=NCC(c2cc(Br)ccc2Br)N1C (stereo not given)  2.77
39. Cc1cc2n(c1C(=O)c1ccccc1)CCC2C(=O)O (stereo not given)  2.85
40. COc1ccc(C(=O)c2c(C)cc3n2CCC3C(=O)O)cc1 (stereo not given)  2.91
41. NCCCCCCCCOc1cccc2ccccc12  3.14
42. CCc1cc2n(c1C(=O)c1ccccc1)CCC2C(=O)O (stereo not given)  3.31
43. Cc1ccc(C(=O)c2c(C)cc3n2CCC3C(=O)O)cc1 (stereo not given)  3.33
44. Cc1cc2n(c1C(=O)c1ccc(Cl)cc1)CCC2C(=O)O (stereo not given)  3.6
45. CCc1cc2n(c1C(=O)c1ccc(F)cc1)CCC2C(=O)O (stereo not given)  3.63
